Assay results: US12138246B2, “Treatments with nirogacestat” (SpringWorks Therapeutics, Inc., priority 2022, dated 2024)
Where a name gives a salt, the structure may show the parent alone.

Key:
[1] = test system: progressing desmoid tumors/aggressive fibromatosis (DT/AF); assay type: in vivo
Source text: A Phase 3, double-blind, placebo-controlled study is being conducted to determine the efficacy and safety of nirogacestat dihydrobromide in participants with progressing desmoid tumors. A Phase 1 solid tumor study provided preliminary efficacy (Messersmith, W., et al., “A Phase I, dose-finding study in patients with advanced solid malignancies of the oral γ-secretase inhibitor PF-03084014,” Clin. Cancer Res., 21:60-7 (2015)), including long-term durable responses and safety of nirogacestat in desmoid participants (Villalobos, V. M., et al., “Long-Term Follow-Up of Desmoid Fibromatosis Treated with PF-03084014, an Oral Gamma Secretase Inhibitor, Ann. Surg. Oncol., 25:768-75 (2018)). These encouraging results lead to a Phase 2 study in participants with progressing desmoid tumors (Kummar, S., et al., “Clinical Activity of the γ-Secretase Inhibitor PF-03084014 in Adults with Desmoid Tumors (Aggressive Fibromatosis), J. Clin. Oncol., 35:1561-69 (2017)). […] Importantly, participants in the responder group had failed previous systemic therapies (imatinib or sorafenib) indicating a need for alterative therapeutic options for this patient population.
Overall Design: The Phase 3 study will be a multi-center, randomized, double-blind, placebo-controlled, event-driven to compare the efficacy, safety, and tolerability of nirogacestat and placebo in adult participants with progressing DT/AF. This study will consist of 2 phases, a double-blind and an optional open-label extension (OLE) phase.
Following disease progression (confirmed by central review using RECIST v1.1), or completion of the double-blind phase (once the required number of events have been observed and the primary PFS analysis has been completed), participants' treatment assignment will be unblinded, and if eligible, participants will have the option to enroll in the optional OLE phase.
• 1. Participant has DT/AF that has progressed by ≥20% as measured by RECIST v1.1 within the 12-month period prior to first dose of study treatment. • 2. Participant has: • a. Newly diagnosed, measurable progressing DT/AF that is not amenable to surgical resection or radiation therapy; • OR • b. Recurrent, progressing DT/AF following CR to initial therapy; • OR • c. Preexisting DT/AF and has previously received therapy and the residual tumor has progressed. • 3. Participant agrees to provide archival or new tumor tissue for confirmation of disease. • 4. If participant was previously treated with an investigational therapy for treatment of DT/AF, participant must have completed prior therapy at least 28 days prior to signing informed consent. All toxicities from prior therapy must resolve to ≤Grade 1 or baseline. • 5. Participants who are receiving nonsteroidal anti-inflammatory drugs (NSAIDs) as treatment for conditions other than DT/AF must be receiving them prior to the observed progression (inclusion criteria 1) for: • a. Chronic scheduled daily use (defined as stable for 28 days prior to signing informed consent); or • b. Occasional use (defined as ≤3 days per week) for the treatment of pain or as an anti-inflammatory in licensed conditions such as headache, arthritis, etc. • c. Participant has an Eastern Cooperative Oncology Group (ECOG) performance status ≤2 at screening. • 6. Participant has adequate organ and bone marrow function as defined by the following Screening laboratory values: • a. Absolute neutrophil count ≥1500/μL; • b. Platelets ≥100×10^3/μL; • c. Hemoglobin ≥9 g/dL; • d. Total bilirubin ≤1.5× upper limit of normal (ULN) (isolated bilirubin >1.5×ULN is acceptable if bilirubin is fractionated and direct bilirubin <35%); • e. Aspartate aminotransferase (AST) (serum glutamic oxaloacetic transaminase)/alanine aminotransferase (ALT) (serum glutamic pyruvate transaminase)≤2×ULN; and • f. […] Participant can swallow tablets and has no gastrointestinal conditions affecting absorption. […]

[2] = test system: progressing desmoid tumors; conditions: Phase 2, participants with progressing desmoid tumors; cited from earlier work
[3] = Pharmacokinetic parameters for single oral doses; assay type: in vivo, human
[4] = intent-to-treat population, n = 70
[5] = Min, COHORT 1: 150 mg (3 × 50 mg), Period 1

What does the source list for CCC[C@H](N[C@H]1CCc2cc(F)cc(F)c2C1)C(=O)Nc1cn(C(C)(C)CNCC(C)(C)C)cn1 (single isomer, unassigned) [nirogacestat]?
most frequent adverse reactions requiring a dose reduction or interruption ([1]; in vivo): diarrhea, rash maculo-papular, hypophosphatemia, stomatitis, folliculitis, and fatigue; Best overall response, n (%): Complete response [1, 4]: 5 (7) n (%); Best overall response, n (%): Not evaluable [1, 4]: 4 (6) n (%); Best overall response, n (%): Partial response [1, 4]: 24 (34) n (%); Best overall response, n (%): Progressive disease [1, 4]: 1 (1) n (%); Best overall response, n (%): Stable disease [1, 4]: 35 (50) n (%); Disease control rate, n (%) [1, 4]: 64 (91) n (%); Time to response, months, median (range) [1, 4]: 5.6 (2.6, 19.4) months; progression-free survival (PFS), hazard ratio (HR) ([1]; nirogacestat over placebo, 150 mg twice daily, p<0.001): 0.29; progression while on therapy [2]: no participants progressing while on therapy

What does the source list for CCC[C@H](N[C@H]1CCc2cc(F)cc(F)c2C1)C(=O)Nc1cn(C(C)(C)CNCC(C)(C)C)cn1 [nirogacestat dihydrobromide]?
CL/F ([3]; Max, COHORT 1: 150 mg (1 × 150 mg), Period 2): 82.0 L/h; Half-life ([3]; Max, COHORT 1: 150 mg (3 × 50 mg), Period 1): 32.0 h; CL/F ([3]; Max, COHORT 3: 50 mg, Period 1): 660 L/h; CL/F ([3]; Median, COHORT 1: 150 mg (3 × 50 mg), Period 1): 57.0 L/h; AUCinf [3, 5]: 2160 ng·h/mL; AUClast [3, 5]: 2080 ng·h/mL
